Measurements as given in patent publication US11814367B2, “Inhibitors of glycogen synthase 1 (GYS1) and methods of use thereof” (Maze Therapeutics, Inc., priority 2021, dated 2023).

Columns and labels:
[1] = target: hGYS1 enzyme (recombinant hGYS1/GN1 protein) (Homo sapiens (Human), UniProt P13807); assay: GYS1 coupled enzyme assay (PK/LDH); assay type: biochemical; settings: hGYS1/GN1 50 nM, UDP-Glucose 0.8 mM, G6P 1 mM; geometric mean of at least 2 runs
[2] = tested on: hGYS1 enzyme / glycogen synthesis in HeLa cells; assay: GYS1 cell based assay (glycogen synthesis, Glucose-glo); design: species or system human; settings: 24 h incubation, 20 mM glucose, geometric mean of at least 2 runs
Procedure, shortened: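 HeLa cells starved 24 h in medium containing only 1× Glutamax were plated onto compound in medium with 20 mM glucose (1% DMSO final) for 24 h, 37 °C, 5% CO2. Acid lysates were Tris-quenched, glucoamylase-digested (pH 5.3, 1 h, 37 °C) and read by Glucose-glo luminescence. IC50 came from Hill fits, as geometric mean of ≥2 runs.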

[3] = target: hGYS2 enzyme (recombinant hGYS2/GN1 protein) (Homo sapiens (Human), UniProt P54840); assay: GYS2 coupled enzyme assay (PK/LDH); assay type: biochemical; settings: geometric mean of at least 2 assay runs on separate days, read-out: Avg_IC50
Procedure, shortened: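 Recombinant hGYS2/GN1 (200 nM) with 2 mM UDP-glucose, 0.2% rabbit liver glycogen, 2 mM glucose-6-phosphate; UDP coupled via PK/LDH (2 mM PEP, 0.6 mM NADH). Buffer 50 mM Tris pH 7.5, 2 mM MgCl2, 100 mM KCl, 2.5% DMSO. A340 slope over 10 min; IC50 from Hill fit of duplicates.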

Chain of hGYS2 enzyme (recombinant hGYS2/GN1 protein) (P54840 whole entry): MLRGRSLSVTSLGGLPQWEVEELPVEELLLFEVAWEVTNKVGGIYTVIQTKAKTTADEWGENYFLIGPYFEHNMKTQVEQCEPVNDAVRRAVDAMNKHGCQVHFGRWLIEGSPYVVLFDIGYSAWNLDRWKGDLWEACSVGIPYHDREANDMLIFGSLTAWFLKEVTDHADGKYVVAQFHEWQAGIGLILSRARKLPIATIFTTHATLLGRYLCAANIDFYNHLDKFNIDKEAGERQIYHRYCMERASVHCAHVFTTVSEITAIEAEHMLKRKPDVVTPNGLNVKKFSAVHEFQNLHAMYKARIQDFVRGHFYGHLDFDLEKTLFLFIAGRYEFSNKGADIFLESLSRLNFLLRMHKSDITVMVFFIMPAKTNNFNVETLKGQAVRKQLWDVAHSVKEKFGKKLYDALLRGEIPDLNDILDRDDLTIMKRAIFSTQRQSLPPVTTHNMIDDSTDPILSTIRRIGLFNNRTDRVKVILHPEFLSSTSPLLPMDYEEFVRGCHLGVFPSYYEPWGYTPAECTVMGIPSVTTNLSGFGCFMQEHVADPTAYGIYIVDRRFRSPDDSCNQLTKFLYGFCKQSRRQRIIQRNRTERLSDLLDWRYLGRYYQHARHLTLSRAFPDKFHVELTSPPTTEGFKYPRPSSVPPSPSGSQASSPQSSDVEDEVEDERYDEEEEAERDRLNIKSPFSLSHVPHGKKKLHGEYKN
Chain of hGYS2 enzyme (recombinant hGYS2/GN1 protein) (P46976 whole entry partner): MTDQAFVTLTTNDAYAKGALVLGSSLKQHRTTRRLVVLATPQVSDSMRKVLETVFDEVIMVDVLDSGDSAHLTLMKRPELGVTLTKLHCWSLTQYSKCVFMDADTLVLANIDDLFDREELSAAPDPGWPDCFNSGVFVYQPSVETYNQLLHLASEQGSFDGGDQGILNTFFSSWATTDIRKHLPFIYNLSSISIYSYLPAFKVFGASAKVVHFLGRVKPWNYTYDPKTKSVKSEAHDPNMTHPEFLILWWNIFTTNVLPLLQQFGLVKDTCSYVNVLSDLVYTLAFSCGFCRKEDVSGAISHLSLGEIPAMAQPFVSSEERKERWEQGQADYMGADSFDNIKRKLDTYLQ
Chain of hGYS1 enzyme (recombinant hGYS1/GN1 protein) (P13807 whole entry): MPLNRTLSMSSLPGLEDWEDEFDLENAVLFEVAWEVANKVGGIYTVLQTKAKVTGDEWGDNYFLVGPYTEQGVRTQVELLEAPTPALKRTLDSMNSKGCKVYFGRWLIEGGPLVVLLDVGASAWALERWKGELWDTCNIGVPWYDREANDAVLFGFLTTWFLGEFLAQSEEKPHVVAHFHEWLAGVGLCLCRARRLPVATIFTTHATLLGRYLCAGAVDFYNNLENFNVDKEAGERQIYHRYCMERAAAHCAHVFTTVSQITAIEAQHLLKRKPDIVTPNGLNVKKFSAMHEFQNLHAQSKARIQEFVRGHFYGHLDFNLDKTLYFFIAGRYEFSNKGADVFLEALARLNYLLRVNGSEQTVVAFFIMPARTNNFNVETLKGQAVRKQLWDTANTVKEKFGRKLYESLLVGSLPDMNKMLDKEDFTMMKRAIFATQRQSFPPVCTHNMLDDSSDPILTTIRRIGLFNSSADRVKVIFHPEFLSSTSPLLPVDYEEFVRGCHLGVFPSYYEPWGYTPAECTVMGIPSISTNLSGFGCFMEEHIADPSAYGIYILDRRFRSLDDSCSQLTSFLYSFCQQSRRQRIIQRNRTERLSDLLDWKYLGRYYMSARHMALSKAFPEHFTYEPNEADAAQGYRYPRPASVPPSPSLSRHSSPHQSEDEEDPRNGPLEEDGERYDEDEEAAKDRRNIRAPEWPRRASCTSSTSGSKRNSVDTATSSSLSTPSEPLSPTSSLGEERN
Chain of hGYS1 enzyme (recombinant hGYS1/GN1 protein) (P46976 whole entry partner): as the sequence (P46976 whole entry partner) above

Row | SMILES | IC50 [1] [nM] | IC50 ([2]; Homo sapiens, HeLa, 24 h) [nM] | IC50 [3] [nM] | IC50 [2] [nM]
1 | CC(C)c1ccc([C@@H](NC(=O)[C@@H]2C[C@@H](F)CN2C(=O)Cc2cn(C)nn2)c2ccccc2)cc1F [Compound 336] | 15 | 280 | > 100000 | –
2 | CCC(C)c1ccc(C(NC(=O)[C@@H]2C[C@@H](F)CN2C(=O)Cc2cnn[nH]2)c2ccccc2)cc1F (single isomer, unassigned) [Compound 677, (2S,4R)-N-[(S) or (R)-{4-[(2R) or (2S)-butan-2-yl]-3-fluorophenyl} (phenyl)methyl]-4-fluoro-1-[2-(1H-1,2,3-triazol-5-yl)acetyl]pyrrolidine-2-carboxamide] | 51 | – | > 100000 | 990
3 | CC(C)c1ccc([C@@H](NC(=O)[C@@H]2C[C@@H](F)CN2C(=O)CN(C)C(=O)N(C)C)c2ccccc2)cc1F [Compound 362, (2S,4R)-1-{2-[(dimethylcarbamoyl) (methyl)amino]acetyl}-4-fluoro-N-[(S)-[3-fluoro-4-(propan-2-yl)phenyl](phenyl)methyl] pyrrolidine-2-carboxamide] | 90 | 1150 | > 100000 | –
4 | CN(C)c1cn(CC(=O)N2C[C@H](F)C[C@H]2C(=O)N[C@@H](c2ccccc2)c2ccc(C3CC3)c(F)n2)nn1 [Compound 299, (2S,4R)-N-[(S)-(5-cyclopropyl-6-fluoropyridin-2-yl)(phenyl)methyl]-1-{2-[4-(dimethylamino)-1H-1,2,3-triazol-1-yl]acetyl}-4-fluoropyrrolidine-2-carboxamide] | 22 | 420 | > 100000 | –
5 | CC(C)c1ccc([C@@H](NC(=O)[C@@H]2CC[C@H](C)N2C(=O)Cc2cnn[nH]2)c2ccccc2)cc1F [Compound 323, (2S,5S)-N-[(S)-[3-fluoro-4-(propan-2-yl)phenyl](phenyl)methyl]-5-methyl-1-[2-(1H-1,2,3-triazol-5-yl)acetyl]pyrrolidine-2-carboxamide] | 74 | 900 | > 100000 | –
6 | Cc1coc(CC(=O)N2C[C@H](F)C[C@H]2C(=O)N[C@@H](c2ccccc2)c2ccc(C(C)C)cn2)n1 [Compound 272] | 54 | 710 | > 100000 | –
7 | CC(C)c1ccc([C@@H](NC(=O)[C@@H]2C[C@@H](F)CN2C(=O)C(C)n2ccnc2)c2ccccc2)cc1F (single isomer, unassigned) [Compound 771, (2S,4R)-4-fluoro-N-[(S)-[3-fluoro-4-(propan-2-yl)phenyl](phenyl)methyl]-1-[(2S) or (2R)-2-(1H-imidazol-1-yl)propanoyl]pyrrolidine-2-carboxamide] | 33 | – | > 100000 | 540
8 | Cc1cc(C(NC(=O)[C@@H]2C[C@@H](F)CN2C(=O)Cc2cnn[nH]2)c2ccccc2)cc(F)c1C(C)C (single isomer, unassigned) [Compound 680, (2S,4R)-4-fluoro-N-[(S) or (R)-[3-fluoro-5-methyl-4-(propan-2-yl)phenyl](phenyl)methyl]-1-[2-(1H-1,2,3-triazol-5-yl)acetyl]pyrrolidine-2-carboxamide] | 15 | – | 93000 | 270
9 | CC(C)c1ccc([C@@H](NC(=O)[C@@H]2C[C@@H](F)CN2C(=O)Cc2ncco2)c2ccccc2)nc1F [Compound 407, (2S,4R)-4-fluoro-N-[(S)-[6-fluoro-5-(propan-2-yl)pyridin-2-yl](phenyl)methyl]-1-[2-(1,3-oxazol-2-yl)acetyl]pyrrolidine-2-carboxamide] | 15 | 420 | > 100000 | –
10 | Cc1cnc(CC(=O)N2C[C@H](F)C[C@H]2C(=O)N[C@@H](c2ccccc2)c2ccc(C(C)C)cn2)o1 [Compound 271, (2S,4R)-4-fluoro-1-[2-(5-methyl-1,3-oxazol-2-yl)acetyl]-N-[(S)-phenyl[5-(propan-2-yl)pyridin-2-yl]methyl]pyrrolidine-2-carboxamide] | 36 | 870 | > 100000 | –
